According to patent US11214803B2, “Modulators of YAP1 expression” (Ionis Pharmaceuticals, Inc., priority 2019, dated 2022):

How the values were obtained:
[1] = system: Yap1 mRNA; assay: Yap1 mRNA in NCI H747 cells, RNA analysis (Example 31); assay type: cell-based, human; conditions: free uptake, approximately 48 hours
Procedure: Modified oligonucleotides described in the studies above were tested at various doses in colorectal adenocarcinoma cell line NCI H747. A control oligonucleotide 792169 was also tested.
Cultured NCI H747 cells at a density of 10,000 cells per well were treated using free uptake with modified oligonucleotides diluted to concentrations described in the tables below. After approximately 48 hours, Yap1 mRNA levels were measured as previously described using the Human Yap1 primer-probe set RTS4814. Yap1 mRNA levels were normalized to actin-beta content, as measured by primer probe set RTS5002. Results are presented in the tables below as percent control of the amount of Yap1 mRNA relative to untreated control cells (% UTC).

[2] = system: Yap1 mRNA; assay: Yap1 mRNA in SCC-25 cells, RNA analysis (Example 42); assay type: cell-based, human; conditions: free uptake, approximately 48 hours
Procedure: Modified oligonucleotides described in the studies above were tested at various doses in tongue squamous cell carcinoma cell line SCC-25. A control oligonucleotide 792169, described herein above, was also tested.
Cultured SCC-25 cells at a density of 5000 cells per well were treated using free uptake with modified oligonucleotides diluted to concentrations described in the tables below. After approximately 48 hours, Yap1 mRNA levels were measured as previously described using the Human Yap1 primer-probe set RTS4814. Yap1 mRNA levels were normalized to actin-beta content, as measured by primer probe set RTS5002. Results are presented in the tables below as percent control of the amount of Yap1 mRNA relative to untreated control cells (% UTC).

[3] = system: NCI H292 cells; assay: Cell proliferation assay in NCI H292 cells, CellTiter-Glo (Example 32); assay type: cell-based, human; conditions: free uptake, approximately 144 hours
Procedure: Modified oligonucleotides described in the studies above were tested at various doses in mucoepidermoid pulmonary carcinoma cell line […]. A control oligonucleotide 792169 was also tested.
Cultured NCI H292 cells at a density of 1000 cells/well were treated using free uptake with modified oligonucleotides diluted to concentrations described in the tables below. After approximately 144 hours, cell proliferation was measured using the luminescent cell viability CellTiter-Glo® 2.0 Assay (Promega). Results are presented in the tables below as percent control of the amount of luminescence in samples treated with modified oligonucleotides relative to untreated control cells (% UTC).

[4] = system: Detroit-562 cells; assay: Cell proliferation assay in Detroit-562 cells, CellTiter-Glo (Example 38); assay type: cell-based, human; conditions: free uptake, approximately 144 hours
Procedure: Modified oligonucleotides described in the studies above were tested at various doses in pharynx carcinoma cell line Detroit-562. A control oligonucleotide 792169, described herein above, was also tested.
Cultured Detroit-562 cells at a density of 1000 cells/well were treated using free uptake with modified oligonucleotides diluted to concentrations described in the tables below. After approximately 144 hours, cell proliferation was measured using the luminescent cell viability CellTiter-Glo® 2.0 Assay (Promega). Results are presented in the tables below as percent control of the amount of luminescence in samples treated with modified oligonucleotides relative to untreated control cells (% UTC).

[5] = system: BICR-22 cells; assay: Cell proliferation assay in BICR-22 cells, CellTiter-Glo (Example 35); assay type: cell-based, human; conditions: free uptake, approximately 144 hours
Procedure: Modified oligonucleotides described in the studies above were tested at various doses in tongue squamous carcinoma (lymph node metastasis) cell line BICR-22. A control oligonucleotide 792169, described herein above, was also tested.
Cultured BICR-22 cells at a density of 1000 cells/well were treated using free uptake with modified oligonucleotides diluted to concentrations described in the tables below. After approximately 144 hours, cell proliferation was measured using the luminescent cell viability CellTiter-Glo® 2.0 Assay (Promega). Results are presented in the tables below as percent control of the amount of luminescence in samples treated with modified oligonucleotides relative to untreated control cells (% UTC).

[6] = system: CAL33 xenograft tumor; assay: Tumor volume and tumor weight in CAL33 xenograft tumor model (Example 29); assay type: in vivo, human; conditions: 50 mg/kg twice weekly for two weeks; for Average Tumor Volume: CAL33 xenografts
Procedure: A xenograft tumor model was used to evaluate activity of modified oligonucleotides targeted to human Yap1. One million CAL33 cells in 30% matrigel were implanted subcutaneously into the flanks of female CrTac:NCr-Foxnlnu (Taconic) mice. When tumors reached an average volume of 100 mm^3, approximately two weeks post-implantation, groups of eight mice were administered at 50 mg/kg twice weekly with modified oligonucleotides for two weeks. ION 792169 was administered as a control.
Tumor volume was measured at the indicated days in the table below. Tumor weight was determined at end of study. Mice were sacrificed when tumors from PBS-treated mice reached 2,000 mm3.

[7] = system: Yap1 mRNA; assay: Yap1 mRNA in CAL33 cells, RNA analysis (Example 36); assay type: cell-based, human; conditions: free uptake, approximately 48 hours
Procedure: Modified oligonucleotides described in the studies above were tested at various doses in tongue squamous cell carcinoma line CAL33. A control oligonucleotide 792169, described herein above, was also tested.
Cultured CAL33 cells at a density of 5000 cells per well were treated using free uptake with modified oligonucleotides diluted to concentrations described in the tables below. After approximately 48 hours, Yap1 mRNA levels were measured as previously described using the Human Yap1 primer-probe set RTS4814. Yap1 mRNA levels were normalized to actin-beta content, as measured by primer probe set RTS5002. Results are presented in the tables below as percent control of the amount of Yap1 mRNA relative to untreated control cells (% UTC).

[8] = system: SNU-1066 cells; assay: Cell proliferation assay in SNU-1066 cells, CellTiter-Glo (Example 44); assay type: cell-based, human; conditions: free uptake, approximately 144 hours
Procedure: Modified oligonucleotides described in the studies above were tested at various doses in laryngeal squamous cell carcinoma line SNU-1066. A control oligonucleotide 792169, described herein above, was also tested.
Cultured SNU-1066 cells at a density of 1000 cells/well were treated using free uptake with modified oligonucleotides diluted to concentrations described in the tables below. After approximately 144 hours, cell proliferation was measured using the luminescent cell viability CellTiter-Glo® 2.0 Assay (Promega). Results are presented in the tables below as percent control of the amount of luminescence in samples treated with modified oligonucleotides relative to untreated control cells (% UTC).

CGCCGATAAGGTACAC (cEt gapmer, phosphorothioate backbone, further chemistry not given here) [ION 792169, reference compound]
human Yap1 mRNA expression ([1]; 0.04 μM): 94 % UTC
human Yap1 mRNA expression ([1]; 0.2 μM): 83 % UTC
human Yap1 mRNA expression ([1]; 1 μM): 87 % UTC
human Yap1 mRNA expression ([1]; 5 μM): 100 % UTC
human Yap1 mRNA expression ([2]; 0.08 μM): 87 % UTC
human Yap1 mRNA expression ([2]; 0.4 μM): 87 % UTC
human Yap1 mRNA expression ([2]; 2 μM): 89 % UTC
human Yap1 mRNA expression ([2]; 10 μM): 86 % UTC
Antiproliferative effect (cell proliferation, luminescence) ([3]; 0.04 μM): 98 % UTC
Antiproliferative effect (cell proliferation, luminescence) ([3]; 0.2 μM): 97 % UTC
Antiproliferative effect (cell proliferation, luminescence) ([3]; 1 μM): 99 % UTC
Antiproliferative effect (cell proliferation, luminescence) ([3]; 5 μM): 92 % UTC
Antiproliferative effect (cell proliferation, luminescence) ([4]; 0.04 μM): 99 % UTC
Antiproliferative effect (cell proliferation, luminescence) ([4]; 0.2 μM): 106 % UTC
Antiproliferative effect (cell proliferation, luminescence) ([4]; 1 μM): 100 % UTC
Antiproliferative effect (cell proliferation, luminescence) ([4]; 5 μM): 79 % UTC
Antiproliferative effect (cell proliferation, luminescence) ([5]; 0.04 μM): 97 % UTC
Antiproliferative effect (cell proliferation, luminescence) ([5]; 0.2 μM): 95 % UTC
Antiproliferative effect (cell proliferation, luminescence) ([5]; 1 μM): 82 % UTC
Antiproliferative effect (cell proliferation, luminescence) ([5]; 5 μM): 65 % UTC
Average Tumor weight ([6]; CAL33 xenograft mice, end of study): 0.85 g
Average Tumor Volume ([6]; day 10 post-implantation): 123 mm^3
Average Tumor Volume ([6]; day 13 post-implantation): 262 mm^3
Average Tumor Volume ([6]; day 17 post-implantation): 367 mm^3
Average Tumor Volume ([6]; day 21 post-implantation): 531 mm^3
Average Tumor Volume ([6]; day 24 post-implantation): 774 mm^3
Average Tumor Volume ([6]; day 27 post-implantation): 805 mm^3
Average Tumor Volume ([6]; day 31 post-implantation): 962 mm^3
Average Tumor Volume ([6]; day 34 post-implantation): 1057 mm^3
Average Tumor Volume ([6]; day 38 post-implantation): 1171 mm^3
Average Tumor Volume ([6]; day 40 post-implantation): 1160 mm^3
Average Tumor Volume ([6]; day 44 post-implantation): 1069 mm^3
human Yap1 mRNA expression ([7]; 0.04 μM): 106 % UTC
human Yap1 mRNA expression ([7]; 0.2 μM): 106 % UTC
human Yap1 mRNA expression ([7]; 1 μM): 91 % UTC
human Yap1 mRNA expression ([7]; 5 μM): 85 % UTC
Antiproliferative effect (cell proliferation, luminescence) ([8]; 0.04 μM): 100 % UTC
Antiproliferative effect (cell proliferation, luminescence) ([8]; 0.2 μM): 104 % UTC
Antiproliferative effect (cell proliferation, luminescence) ([8]; 1 μM): 102 % UTC
Antiproliferative effect (cell proliferation, luminescence) ([8]; 5 μM): 96 % UTC
